From patent publication US20070037179A1, “Methods of diagnosing and prognosticating solid tumors and melanoma” (priority 2004, published 2007)

How the values were obtained:
[1] = biological target: T1, A3 adenosine receptors (Homo sapiens, UniProt P0DMS8); assay: [3H]MRE 3008F20 saturation binding to membranes of peripheral blood lymphocytes and neutrophils; set-up: endogenous in cells; host or cells: neutrophils and lymphocytes from peripheral venous blood of colorectal cancer patients and healthy volunteers; conditions: N=3
T1 sequence (P0DMS8 1-318): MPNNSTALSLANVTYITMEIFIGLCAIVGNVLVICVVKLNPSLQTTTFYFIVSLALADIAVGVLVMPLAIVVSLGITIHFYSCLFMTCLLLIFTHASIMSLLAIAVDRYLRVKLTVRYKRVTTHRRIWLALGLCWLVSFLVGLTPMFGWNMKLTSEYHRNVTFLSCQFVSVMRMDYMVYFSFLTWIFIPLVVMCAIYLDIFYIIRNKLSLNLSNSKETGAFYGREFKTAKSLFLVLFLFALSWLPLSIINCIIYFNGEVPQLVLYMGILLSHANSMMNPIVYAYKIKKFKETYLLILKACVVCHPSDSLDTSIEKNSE
Protocol: (§1) Non-specific binding was determined in the presence of 1 μM MRE 3008F20. Bound and free radioactivity were separated, after an incubation time of 120 min at 4° C., by filtering the assay mixture using a Brandel cell harvester. The protein concentration was determined according to a Bio Rad method (26). Binding to A1 and A2A adenosine receptors was performed using [^3H]1,3-dipropyl-8-cyclopentyl-xanthine ([^3H]DPCPX) and [^3H]4-(2-[7-amino-2-(2-furyl)-[1,2,4]triazolo-[2,32][1,3,6]triazinyl-amino]ethyl)-phenol ([^3H]ZM 241385), respectively, as previously described (16, 24).
(§2) Data and statistical analysis. A weighted nonlinear least squares curve fitting program, LIGAND was used for computer analysis of the data from saturation experiments (28). Significant differences between control and patients with colorectal cancer were assessed using Student's t-test or analysis of variance (ANOVA) and the Dunnett's test when required. P<0.05 was considered significant. All data are reported as means±SEM.

[2] = biological target: T1, A3 adenosine receptors; assay: [3H]MRE 3008F20 saturation binding to colonic membranes; set-up: Colon cancer tissues and related mucosa were homogenized in PBS buffer with a Polytron (Kinematica) and centrifuged; from tissue; host or cells: surgical specimens of human colorectal carcinoma, adenoma and adjacent/remote normal colonic mucosa
Protocol: PREPARATION OF COLONIC MEMBRANE SUSPENSIONS. Colon cancer tissues and related mucosa were homogenized in PBS buffer with a Polytron (Kinematica) and centrifuged for 15 min at 48,000 g. The membrane pellet was resuspended in 50 mM Tris/HCl buffer pH 7.4 (50 mM Tris/HCl, 10 mM MgCl2, 1 mM EDTA) and incubated with 3 IU/ml of adenosine deaminase for 30 min at 37° C. This suspension was used for binding experiments.
as §1, §2

Question: With `CCCn1cc2c(nc(NC(=O)Nc3ccc(OC)cc3)n3nc(-c4ccco4)nc23)n1` [[^3H]MRE 3008F20, 5-N-(4-methoxyphenyl-carbamoyl)amino-8-propyl-2(2furyl)-pyrazolo-[4,3 e]-1,2,4-triazolo [1,5-c]pyrimidine] as the molecule, how does the Bmax ([1]; lymphocytes of patients with small adenomas) read?
Answer: 106±15 fmol/mg of protein

Question: And the Bmax ([1]; neutrophils of patients with small adenomas)?
Answer: 547±77 fmol/mg of protein

Question: And the Bmax ([2]; adjacent normal (AN) mucosa, 2 cm from tumor)?
Answer: 295±20 fmol/mg of protein

Question: And the Bmax ([2]; colonic membranes from 14 patients operated for non-neoplastic large bowel disease)?
Answer: 163±10 fmol/mg of protein

Question: And the Bmax ([2]; large adenomas with high-grade dysplasia, N=4)?
Answer: 302±15 fmol/mg of protein

Question: And the Bmax ([2]; remote normal (RN) mucosa, 10 cm from tumor)?
Answer: 196±10 fmol/mg of protein

Question: What about the Bmax ([2]; small adenomas with low-grade dysplasia, N=4) of the same molecule?
Answer: 155±24 fmol/mg of protein

Question: What about the Bmax ([2]; tumor tissues, 73 primary colorectal carcinomas, mean±SEM) of the same molecule?
Answer: 584±35 fmol/mg of protein
